PubChem BioAssay AID1963846 (Molecular Pharmacology Branch, DTP, NCI, 2024)

System: 454973-116-R2-J3-PDC complex spheroid viability
Experiment: Anticancer human tumor 454973-116-R2-J3-PDC patient-derived pancreatic carcinoma cell line growth inhibition [POLQ]
Details: for IC50: curve of first compound; for viability, T/C: stronger effect = lower value; active means viability on the fitted dose curve at most 10% of control; inactive means the rest
In short: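 PDC + HUVEC + MSC complex spheroids; POLQ inhibitors ± partner drugs; top conc. at/near clinical Cmax, else 10 microM (SN-38 1 microM), half-log dilutions; 37 degrees C, 5% CO2.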

[1] = second compound 0.0316 µM, first compound 0.0316 µM
[2] = second compound 0.0316 µM, first compound 0.1 µM
[3] = second compound 0.0316 µM, first compound 0.316 µM
[4] = second compound 0.0316 µM, first compound 1 µM
[5] = second compound 0.0316 µM, first compound 3.16 µM
[6] = second compound 0.0316 µM, first compound 10 µM
[7] = second compound 0.1 µM, first compound 0.0316 µM
[8] = second compound 0.1 µM, first compound 0.1 µM
[9] = second compound 0.1 µM, first compound 0.316 µM
[10] = second compound 0.1 µM, first compound 1 µM
[11] = second compound 0.1 µM, first compound 3.16 µM
[12] = second compound 0.1 µM, first compound 10 µM
[13] = second compound 0.316 µM, first compound 0.0316 µM
[14] = second compound 0.316 µM, first compound 0.1 µM
[15] = second compound 0.316 µM, first compound 0.316 µM
[16] = second compound 0.316 µM, first compound 1 µM
[17] = second compound 0.316 µM, first compound 3.16 µM
[18] = second compound 0.316 µM, first compound 10 µM
[19] = second compound 1 µM, first compound 0.0316 µM
[20] = second compound 1 µM, first compound 0.1 µM
[21] = second compound 1 µM, first compound 0.316 µM
[22] = second compound 1 µM, first compound 1 µM
[23] = second compound 1 µM, first compound 3.16 µM
[24] = second compound 1 µM, first compound 10 µM
[25] = second compound 3.16 µM, first compound 0.0316 µM
[26] = second compound 3.16 µM, first compound 0.1 µM
[27] = second compound 3.16 µM, first compound 0.316 µM
[28] = second compound 3.16 µM, first compound 1 µM
[29] = second compound 3.16 µM, first compound 3.16 µM
[30] = second compound 3.16 µM, first compound 10 µM
[31] = second compound 10 µM, first compound 0.0316 µM
[32] = second compound 10 µM, first compound 0.1 µM
[33] = second compound 10 µM, first compound 0.316 µM
[34] = second compound 10 µM, first compound 1 µM
[35] = second compound 10 µM, first compound 3.16 µM
[36] = second compound 10 µM, first compound 10 µM
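Further: spheroids exposed to drugs for seven days before measurement.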
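Wherever viability, T/C is given: percent viability relative to DMSO vehicle control wells taken as 100%.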

C#Cc1c(F)ccc2cc(O)cc(-c3ncc4c(N5CC6CCC(C5)N6)nc(OCC56CCCN5CC(F)C6)nc4c3F)c12 (centres undefined) + Nc1ccc(C#CCN(C(=O)Cc2ncc(C(F)(F)F)cc2C(F)(F)F)c2ccc(F)cc2)nn1
< 0.0316 µM: IC50 (second compound 0.0316 µM) | IC50 (second compound 0.1 µM) | IC50 (second compound 0.316 µM) | IC50 (second compound 1 µM) | IC50 (second compound 3.16 µM) | IC50 (second compound 10 µM)
inactive: viability, T/C [1] 47.5% | viability, T/C [2] 36.1% | viability, T/C [3] 28.4% | viability, T/C [4] 24.1% | viability, T/C [5] 19% | viability, T/C [6] 18.1% | viability, T/C [7] 46.1% | viability, T/C [8] 36% | viability, T/C [9] 26% | viability, T/C [10] 24% | viability, T/C [11] 22.2% | viability, T/C [12] 18% | viability, T/C [13] 49.8% | viability, T/C [14] 35.8% | viability, T/C [15] 28.9% | viability, T/C [16] 25.5% | viability, T/C [17] 22.1% | viability, T/C [18] 19.6% | viability, T/C [19] 46.2% | viability, T/C [20] 35.1% | viability, T/C [21] 29.3% | viability, T/C [22] 25.4% | viability, T/C [23] 22.7% | viability, T/C [24] 18.8% | viability, T/C [25] 43.8% | viability, T/C [26] 35.4% | viability, T/C [27] 25.6% | viability, T/C [28] 25.2% | viability, T/C [29] 21.9% | viability, T/C [30] 18.5% | viability, T/C [31] 44.6% | viability, T/C [32] 39.3% | viability, T/C [33] 32.8% | viability, T/C [34] 28% | viability, T/C [35] 23.4% | viability, T/C [36] 23.5%

CC(C)n1c(=O)n(C)c2cnc3cc(F)c(-c4ccc(OCCCN5CCCCC5)nc4)cc3c21 + Nc1ccc(C#CCN(C(=O)Cc2ncc(C(F)(F)F)cc2C(F)(F)F)c2ccc(F)cc2)nn1
inactive: viability, T/C [1] 101% | viability, T/C [2] 96% | viability, T/C [3] 101% | viability, T/C [4] 96.7% | viability, T/C [5] 102% | viability, T/C [6] 75.8% | viability, T/C [7] 99.3% | viability, T/C [8] 100% | viability, T/C [9] 103% | viability, T/C [10] 115% | viability, T/C [11] 99.6% | viability, T/C [12] 76.1% | viability, T/C [13] 102% | viability, T/C [14] 102% | viability, T/C [15] 117% | viability, T/C [16] 103% | viability, T/C [17] 101% | viability, T/C [18] 83.8% | viability, T/C [19] 114% | viability, T/C [20] 106% | viability, T/C [21] 108% | viability, T/C [22] 114% | viability, T/C [23] 106% | viability, T/C [24] 74.7% | viability, T/C [25] 111% | viability, T/C [26] 113% | viability, T/C [27] 105% | viability, T/C [28] 114% | viability, T/C [29] 101% | viability, T/C [30] 83.8% | viability, T/C [31] 123% | viability, T/C [32] 107% | viability, T/C [33] 114% | viability, T/C [34] 114% | viability, T/C [35] 104% | viability, T/C [36] 76.9%
> 10 µM: IC50 (second compound 0.0316 µM) | IC50 (second compound 0.1 µM) | IC50 (second compound 0.316 µM) | IC50 (second compound 1 µM) | IC50 (second compound 3.16 µM) | IC50 (second compound 10 µM)
